Data set [1] concerns the target Dual specificity protein kinase CLK1 (Mus musculus, UniProt P22518). The data set can be described thus: Inhibition of recombinant mouse CLK1 expressed in bacteria using GRSRSRSRSRSR as substrate in presence of ATP measured after 30 mins by ADP-Glo assay. (In general: ADP-Glo first removes unused ATP, then detects ADP through luciferase.)
The target in data set [2] is Dual specificity tyrosine-phosphorylation-regulated kinase 1A (Rattus norvegicus, UniProt Q63470). As to the kind of experiment: Inhibition of recombinant rat DYRK1A (1 to 499 residues ) expressed in bacterial expression system using KKISGRLSPIMTEQ as substrate measured after 30 mins in presence of ATP by ADP-Glo assay.
For data set [3], the target named is T1, Serine/threonine-protein kinase haspin (Homo sapiens, UniProt Q8TF76).
T1 sequence (Q8TF76 whole entry): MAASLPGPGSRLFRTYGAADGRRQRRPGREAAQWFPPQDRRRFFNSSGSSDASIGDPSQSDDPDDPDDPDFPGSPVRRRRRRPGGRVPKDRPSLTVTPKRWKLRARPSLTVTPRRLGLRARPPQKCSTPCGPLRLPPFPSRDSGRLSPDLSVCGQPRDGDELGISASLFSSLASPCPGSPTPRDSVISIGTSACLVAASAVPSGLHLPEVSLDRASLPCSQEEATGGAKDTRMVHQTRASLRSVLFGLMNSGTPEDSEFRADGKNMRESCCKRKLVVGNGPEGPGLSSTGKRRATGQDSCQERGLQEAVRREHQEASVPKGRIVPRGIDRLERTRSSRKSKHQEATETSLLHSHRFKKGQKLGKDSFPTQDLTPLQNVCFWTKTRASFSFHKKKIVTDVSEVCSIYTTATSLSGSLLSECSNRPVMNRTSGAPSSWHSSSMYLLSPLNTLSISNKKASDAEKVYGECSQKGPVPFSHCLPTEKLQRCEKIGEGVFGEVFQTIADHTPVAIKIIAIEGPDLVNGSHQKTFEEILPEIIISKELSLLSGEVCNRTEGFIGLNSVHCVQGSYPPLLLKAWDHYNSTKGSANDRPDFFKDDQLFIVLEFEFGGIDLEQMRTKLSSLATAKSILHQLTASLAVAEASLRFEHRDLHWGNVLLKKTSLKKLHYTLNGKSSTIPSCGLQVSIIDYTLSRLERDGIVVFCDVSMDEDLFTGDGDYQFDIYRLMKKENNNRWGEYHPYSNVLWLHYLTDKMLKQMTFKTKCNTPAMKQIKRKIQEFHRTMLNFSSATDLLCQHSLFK

The target of data set [4] is Serine/threonine-protein kinase pim-1 (Homo sapiens, UniProt P11309). The data set can be described thus: Inhibition of recombinant human PIM1 expressed in bacterial expression system using histone H1 as substrate measured after 30 mins in presence of ATP by ADP-Glo assay.
Sequence of Serine/threonine-protein kinase pim-1 (P11309 whole entry): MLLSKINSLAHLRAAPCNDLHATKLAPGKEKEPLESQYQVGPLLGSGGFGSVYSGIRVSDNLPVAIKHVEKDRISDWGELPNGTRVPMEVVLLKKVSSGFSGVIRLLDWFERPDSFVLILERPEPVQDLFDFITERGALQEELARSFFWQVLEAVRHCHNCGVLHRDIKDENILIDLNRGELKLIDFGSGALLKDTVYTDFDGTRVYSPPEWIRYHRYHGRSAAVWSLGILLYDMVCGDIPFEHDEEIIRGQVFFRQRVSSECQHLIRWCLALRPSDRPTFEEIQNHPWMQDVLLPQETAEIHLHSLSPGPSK
For data set [5], the target named is Glycogen synthase kinase-3 beta (Homo sapiens, UniProt P49841). As to the kind of experiment: Inhibition of human recombinant GSK3beta expressed in baculovirus in Sf9 insect cells using YRRAAVPPSPSLSRHSSPHQSpEDEEE as substrate measured after 30 mins by ADP-Glo kinase assay.
Sequence of Glycogen synthase kinase-3 beta (P49841 whole entry, canonical isoform): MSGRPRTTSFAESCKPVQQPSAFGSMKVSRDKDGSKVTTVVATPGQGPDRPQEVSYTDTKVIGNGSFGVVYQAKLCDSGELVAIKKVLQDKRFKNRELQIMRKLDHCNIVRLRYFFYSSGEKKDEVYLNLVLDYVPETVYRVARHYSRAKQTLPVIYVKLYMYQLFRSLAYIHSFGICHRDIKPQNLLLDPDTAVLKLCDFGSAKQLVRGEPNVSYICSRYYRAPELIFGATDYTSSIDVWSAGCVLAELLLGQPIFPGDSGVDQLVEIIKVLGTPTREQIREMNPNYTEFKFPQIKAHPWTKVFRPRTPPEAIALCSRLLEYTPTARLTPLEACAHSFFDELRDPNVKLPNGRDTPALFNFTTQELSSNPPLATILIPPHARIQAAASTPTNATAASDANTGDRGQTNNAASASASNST
Data set [6] deals with Casein kinase I isoform epsilon (Homo sapiens, UniProt P49674). As to the kind of experiment: Inhibition of human recombinant CK1 epsilon expressed in baculovirus in sf9 insect cells using RRKHAAIGSpAYSITA as substrate in presence of ATP measured after 30 mins by ADP-Glo assay.
Sequence of Casein kinase I isoform epsilon (P49674 whole entry, canonical isoform): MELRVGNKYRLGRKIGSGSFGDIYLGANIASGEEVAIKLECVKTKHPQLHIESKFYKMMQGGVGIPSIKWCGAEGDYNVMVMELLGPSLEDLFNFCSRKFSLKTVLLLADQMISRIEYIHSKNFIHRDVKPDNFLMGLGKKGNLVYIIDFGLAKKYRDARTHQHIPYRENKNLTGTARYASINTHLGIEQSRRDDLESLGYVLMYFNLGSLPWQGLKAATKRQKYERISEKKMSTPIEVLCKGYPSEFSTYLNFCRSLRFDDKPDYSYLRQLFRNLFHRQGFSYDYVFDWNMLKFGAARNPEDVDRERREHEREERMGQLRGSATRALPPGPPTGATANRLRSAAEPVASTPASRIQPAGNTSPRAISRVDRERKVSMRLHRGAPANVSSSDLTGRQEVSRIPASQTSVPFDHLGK
Data set [7] concerns the target Cyclin-dependent kinase 5/CDK5 activator 1 (Homo sapiens, UniProt Q00535). As to the kind of experiment: Inhibition of human recombinant CDK5/p25 expressed in bacterial expression system using histone H1 as substrate in presence of ATP at measured after 30 mins by ADP-Glo assay.
Data set [8] deals with Tyrosine-protein kinase ABL1 (Homo sapiens, UniProt P00519). The data set can be described thus: Inhibition of human recombinant ABL1 expressed in baculovirus sf9 insect cells using EAIYAAPFAKKK as substrate measured after 30 mins in presence of ATP by ADP-Glo assay.
Data set [9] deals with T2, Tyrosine-protein kinase JAK3 (Homo sapiens, UniProt P52333).
T2 sequence (P52333 whole entry): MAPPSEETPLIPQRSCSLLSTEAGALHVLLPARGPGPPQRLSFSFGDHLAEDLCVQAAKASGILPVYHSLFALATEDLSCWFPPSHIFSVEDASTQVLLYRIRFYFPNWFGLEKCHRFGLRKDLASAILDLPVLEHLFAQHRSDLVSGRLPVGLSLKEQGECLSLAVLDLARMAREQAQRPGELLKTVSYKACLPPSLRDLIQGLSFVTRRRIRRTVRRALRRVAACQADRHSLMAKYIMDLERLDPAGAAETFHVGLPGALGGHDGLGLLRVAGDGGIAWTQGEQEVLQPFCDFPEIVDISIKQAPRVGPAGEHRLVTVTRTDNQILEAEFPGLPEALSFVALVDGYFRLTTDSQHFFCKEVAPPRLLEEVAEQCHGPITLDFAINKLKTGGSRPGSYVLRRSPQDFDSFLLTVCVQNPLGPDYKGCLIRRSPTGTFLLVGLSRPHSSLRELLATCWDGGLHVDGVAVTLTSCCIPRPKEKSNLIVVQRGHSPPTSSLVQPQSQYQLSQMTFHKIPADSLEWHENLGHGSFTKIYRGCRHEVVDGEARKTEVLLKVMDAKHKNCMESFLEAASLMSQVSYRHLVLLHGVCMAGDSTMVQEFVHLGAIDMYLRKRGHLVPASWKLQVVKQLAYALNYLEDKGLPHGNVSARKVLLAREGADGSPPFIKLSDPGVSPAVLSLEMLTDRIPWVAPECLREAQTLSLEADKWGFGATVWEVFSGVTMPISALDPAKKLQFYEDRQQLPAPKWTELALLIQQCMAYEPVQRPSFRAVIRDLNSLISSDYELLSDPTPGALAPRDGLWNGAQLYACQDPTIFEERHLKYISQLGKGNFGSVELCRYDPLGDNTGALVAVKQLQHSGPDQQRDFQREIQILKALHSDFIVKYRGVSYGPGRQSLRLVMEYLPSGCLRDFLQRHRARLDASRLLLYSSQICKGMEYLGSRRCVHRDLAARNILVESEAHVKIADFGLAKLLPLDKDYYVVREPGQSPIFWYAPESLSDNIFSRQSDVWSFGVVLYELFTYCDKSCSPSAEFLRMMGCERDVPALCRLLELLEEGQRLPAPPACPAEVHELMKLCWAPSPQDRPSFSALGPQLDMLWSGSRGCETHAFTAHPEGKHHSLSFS
The data set can be described thus: Inhibition of human recombinant JAK3 expressed in baculovirus sf9 insect cells using GGEEEEYFELVKKKK as substrate measured after 30 mins in presence of ATP by ADP-Glo assay.

The nature of data set [10]: Cytotoxicity against human TERT-RPE1 cells assessed as reduction in cell viability measured after 48 hrs by MTS assay. The class given is toxicity, cell-based. In general terms: Formazan colour is commonly taken as a measure of viable cells.
Data set [11] deals with Serine/threonine-protein kinase PLK1 (Homo sapiens, UniProt P53350). The data set can be described thus: Inhibition of human PLK1 in presence of ATP by kinomescan assay.
Sequence of Serine/threonine-protein kinase PLK1 (P53350 whole entry): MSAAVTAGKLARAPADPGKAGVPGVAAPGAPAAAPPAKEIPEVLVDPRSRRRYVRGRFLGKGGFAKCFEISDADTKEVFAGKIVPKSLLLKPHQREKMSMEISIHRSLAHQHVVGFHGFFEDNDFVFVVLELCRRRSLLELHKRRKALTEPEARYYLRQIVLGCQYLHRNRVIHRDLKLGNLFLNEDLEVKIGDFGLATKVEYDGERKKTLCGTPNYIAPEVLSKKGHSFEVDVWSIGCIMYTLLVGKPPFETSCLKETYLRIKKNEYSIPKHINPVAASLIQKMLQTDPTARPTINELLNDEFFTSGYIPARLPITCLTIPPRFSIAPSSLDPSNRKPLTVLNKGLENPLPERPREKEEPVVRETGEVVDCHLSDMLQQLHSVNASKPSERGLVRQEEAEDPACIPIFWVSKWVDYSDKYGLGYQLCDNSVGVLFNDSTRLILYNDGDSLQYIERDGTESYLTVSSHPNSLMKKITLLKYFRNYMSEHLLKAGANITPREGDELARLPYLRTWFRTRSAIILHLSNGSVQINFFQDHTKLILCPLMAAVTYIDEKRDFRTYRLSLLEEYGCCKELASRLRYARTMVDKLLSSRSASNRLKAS
Data set [12] concerns the target Serine/threonine-protein kinase PLK2 (Homo sapiens, UniProt Q9NYY3). The data set can be described thus: Inhibition of human PLK2 in presence of ATP by kinomescan assay.
Data set [13] deals with Serine/threonine-protein kinase PLK3 (Homo sapiens, UniProt Q9H4B4). The data set can be described thus: Inhibition of human recombinant PLK3 in presence of ATP by kinomescan assay.
Sequence of Serine/threonine-protein kinase PLK3 (Q9H4B4 whole entry): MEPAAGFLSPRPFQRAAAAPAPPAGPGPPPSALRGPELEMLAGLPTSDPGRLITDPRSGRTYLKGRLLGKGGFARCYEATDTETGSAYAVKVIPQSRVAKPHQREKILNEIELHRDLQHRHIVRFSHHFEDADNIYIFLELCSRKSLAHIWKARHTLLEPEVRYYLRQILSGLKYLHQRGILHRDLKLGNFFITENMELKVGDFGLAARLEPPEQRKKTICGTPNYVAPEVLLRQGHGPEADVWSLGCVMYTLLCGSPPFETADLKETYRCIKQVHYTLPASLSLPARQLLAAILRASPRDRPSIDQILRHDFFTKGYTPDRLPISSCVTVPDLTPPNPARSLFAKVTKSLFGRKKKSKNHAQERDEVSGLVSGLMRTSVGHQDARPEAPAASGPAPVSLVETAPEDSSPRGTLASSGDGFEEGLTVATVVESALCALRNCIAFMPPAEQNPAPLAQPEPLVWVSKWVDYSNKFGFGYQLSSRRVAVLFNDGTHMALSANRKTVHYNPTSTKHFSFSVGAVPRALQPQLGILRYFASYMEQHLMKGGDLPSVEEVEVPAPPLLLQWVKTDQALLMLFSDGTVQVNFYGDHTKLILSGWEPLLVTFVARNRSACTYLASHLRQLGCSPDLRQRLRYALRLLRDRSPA
Data set [14] has as its target Death-associated protein kinase 3 (Homo sapiens, UniProt O43293). As to the kind of experiment: Inhibition of human DAPK3 in presence of ATP by kinomescan assay.
Data set [15] in a line: Inhibition of human recombinant CDK9 expressed in baculovirus insect Sf9 cells using YSPTSPSYSPTSPSYSPTSPSKKKK as substrate measured after 30 mins in presence of ATP by ADP-Glo assay.
The next data set has as its system HCT-116. As to the kind of experiment: Cytotoxicity against human HCT-116 cells assessed as reduction in cell viability measured after 48 hrs by MTS assay. The settings on record: HCT-116, 48 h.
The next data set relates to HBL-100. As to the kind of experiment: Cytotoxicity against human HBL-100 cells assessed as reduction in cell viability measured after 48 hrs by MTS assay. Particulars: HBL-100, 48 h.
The next data set concerns SH-SY5Y. As to the kind of experiment: Cytotoxicity against human SH-SY5Y cells assessed as reduction in cell viability measured after 48 hrs by MTS assay.
For the next data set, the system named is U2OS. As to the kind of experiment: Cytotoxicity against human U2OS cells assessed as reduction in cell viability measured after 48 hrs by MTS assay.

For orientation: IC50 means the concentration at which inhibition is half-maximal. What is called EC50 is the concentration at which the effect is half-maximal.

Sequence of Dual specificity protein kinase CLK1 (P22518 whole entry, the tested form may be a part): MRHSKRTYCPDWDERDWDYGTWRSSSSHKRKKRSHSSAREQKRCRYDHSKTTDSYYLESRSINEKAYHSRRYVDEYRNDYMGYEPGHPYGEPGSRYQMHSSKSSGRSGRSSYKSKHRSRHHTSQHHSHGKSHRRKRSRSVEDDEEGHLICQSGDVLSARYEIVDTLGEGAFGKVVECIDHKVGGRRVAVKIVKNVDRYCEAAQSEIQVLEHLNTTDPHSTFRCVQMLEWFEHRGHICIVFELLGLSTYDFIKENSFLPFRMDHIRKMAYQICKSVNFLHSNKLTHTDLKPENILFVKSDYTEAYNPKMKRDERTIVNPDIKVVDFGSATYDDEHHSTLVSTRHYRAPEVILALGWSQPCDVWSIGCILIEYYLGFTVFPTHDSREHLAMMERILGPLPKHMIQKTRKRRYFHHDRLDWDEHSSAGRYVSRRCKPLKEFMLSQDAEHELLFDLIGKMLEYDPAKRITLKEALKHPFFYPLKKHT
Sequence of Death-associated protein kinase 3 (O43293 whole entry): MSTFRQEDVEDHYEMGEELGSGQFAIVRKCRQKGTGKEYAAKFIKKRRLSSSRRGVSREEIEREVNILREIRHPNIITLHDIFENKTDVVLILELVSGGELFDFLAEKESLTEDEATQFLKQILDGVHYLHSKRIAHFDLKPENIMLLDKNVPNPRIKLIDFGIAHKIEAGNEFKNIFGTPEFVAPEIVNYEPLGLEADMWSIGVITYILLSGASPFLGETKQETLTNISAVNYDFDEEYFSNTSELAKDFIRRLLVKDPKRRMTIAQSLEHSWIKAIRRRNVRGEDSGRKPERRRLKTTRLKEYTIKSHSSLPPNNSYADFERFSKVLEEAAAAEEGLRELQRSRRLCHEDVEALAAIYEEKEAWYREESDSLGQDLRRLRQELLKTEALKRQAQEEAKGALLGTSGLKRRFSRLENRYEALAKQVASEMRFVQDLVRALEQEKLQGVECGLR
Sequence of Cyclin-dependent kinase 5/CDK5 activator 1 (Q00535 whole entry): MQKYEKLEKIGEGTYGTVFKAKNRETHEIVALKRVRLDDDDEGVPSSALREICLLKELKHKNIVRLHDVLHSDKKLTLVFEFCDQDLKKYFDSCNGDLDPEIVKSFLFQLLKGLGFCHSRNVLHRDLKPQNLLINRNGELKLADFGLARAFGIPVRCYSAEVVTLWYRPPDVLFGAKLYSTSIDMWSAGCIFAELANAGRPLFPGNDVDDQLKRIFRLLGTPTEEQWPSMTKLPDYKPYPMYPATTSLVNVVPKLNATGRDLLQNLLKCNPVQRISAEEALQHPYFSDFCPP
Sequence of Cyclin-dependent kinase 5/CDK5 activator 1 (Q15078 whole entry, further chain): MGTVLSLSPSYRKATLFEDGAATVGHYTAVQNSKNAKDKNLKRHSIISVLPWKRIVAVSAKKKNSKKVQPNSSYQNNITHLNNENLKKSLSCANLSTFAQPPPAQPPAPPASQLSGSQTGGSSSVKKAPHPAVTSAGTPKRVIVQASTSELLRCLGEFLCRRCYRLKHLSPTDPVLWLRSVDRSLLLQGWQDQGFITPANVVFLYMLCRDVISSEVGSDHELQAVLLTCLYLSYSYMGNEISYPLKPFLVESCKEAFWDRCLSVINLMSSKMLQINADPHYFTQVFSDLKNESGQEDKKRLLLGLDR
Sequence of Serine/threonine-protein kinase PLK2 (Q9NYY3 whole entry): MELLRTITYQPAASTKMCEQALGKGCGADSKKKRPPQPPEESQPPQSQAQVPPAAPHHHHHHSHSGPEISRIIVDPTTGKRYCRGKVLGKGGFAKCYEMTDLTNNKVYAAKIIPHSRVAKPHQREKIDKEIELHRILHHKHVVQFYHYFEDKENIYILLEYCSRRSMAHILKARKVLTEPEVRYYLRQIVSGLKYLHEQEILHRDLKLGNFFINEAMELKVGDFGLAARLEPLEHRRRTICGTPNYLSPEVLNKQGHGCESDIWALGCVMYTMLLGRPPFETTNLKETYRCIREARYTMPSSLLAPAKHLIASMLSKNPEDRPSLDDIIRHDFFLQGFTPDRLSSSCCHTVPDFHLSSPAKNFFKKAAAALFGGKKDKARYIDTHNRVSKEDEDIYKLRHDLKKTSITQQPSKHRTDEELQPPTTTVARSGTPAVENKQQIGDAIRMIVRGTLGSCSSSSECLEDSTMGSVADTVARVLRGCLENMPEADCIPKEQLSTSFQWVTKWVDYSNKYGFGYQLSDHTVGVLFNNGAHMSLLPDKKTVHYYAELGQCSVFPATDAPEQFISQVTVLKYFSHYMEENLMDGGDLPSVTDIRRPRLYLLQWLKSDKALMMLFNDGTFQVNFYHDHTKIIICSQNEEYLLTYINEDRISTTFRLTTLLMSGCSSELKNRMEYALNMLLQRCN

As for `CC(C)Sc1ncc2cc3cnccc3c(N)c2n1`, the IC50 in data set [1] was 72 nM; in data set [2] it was 594 nM; in [3] it was 56 nM.
Turning to `CCCNc1ccc2ncc(-c3ccc4[nH]ncc4c3)n2n1`, the IC50 amounted to 29 nM in data set [4]; 8 nM in data set [1]; 13 nM in [2]; 53 nM in data set [5]; 99 nM in data set [6]; 41 nM in data set [7]. For the same compound, the concentration for half-maximal inhibition (IC50) in data set [8] worked out at 162 nM; in [9] it was 119 nM.
The compound `CCCCCSc1ncc2cc3cnccc3c(N)c2n1` gave an IC50 in [3] of 432 nM.
Still for that read-out and setting: the result for `CCOC(=O)CCSc1ncc2cc3cnccc3c([N+](=O)[O-])c2n1` reads 897 nM; that for `CCC(C)Sc1ncc2cc3cnccc3c([N+](=O)[O-])c2n1` (centres undefined), 484 nM.
In the case of `COc1ncc2cc3cnccc3c([N+](=O)[O-])c2n1`, the EC50 at 48 h in data set [10] was found to be 3200 nM. Besides, the IC50 in data set [11] worked out at 294 nM; in data set [12], 125 nM; in [13], 117 nM; in data set [14], 578 nM.
Turning to `CSc1ncc2cc3cnccc3c([N+](=O)[O-])c2n1`, the IC50 in [15] came out at 407 nM; in data set [3], 119 nM. For the same compound, the concentration giving a half-maximal response (EC50) at 48 h in data set [10] turned out to be 800 nM. Further, the results for the EC50 in the data set on HCT-116, in the data set with HBL-100 and with SH-SY5Y were 1100 nM, 1300 nM and 1200 nM, respectively.
Consider `Nc1ccc2cc3cnccc3c([N+](=O)[O-])c2n1`, for which the 50% inhibitory concentration (IC50) is 20 nM in data set [1]; 87 nM in [2]; 24 nM in data set [15]; 418 nM in data set [5]; 3 nM in [3]. Further, the 50% effective concentration (EC50) with U2OS came out at 300 nM; in the data set with HCT-116 it was 200 nM; in the data set on HBL-100, 800 nM; with SH-SY5Y it was 200 nM. In [10], the EC50 at 48 h worked out at 400 nM.
As for `CCCCSc1ncc2cc3cnccc3c(N)c2n1`, the concentration for half-maximal inhibition (IC50) in data set [1] was 92 nM; in data set [2], 132 nM; in data set [3] it was 69 nM.
With `CSc1ncc2cc3cnccc3c(N)c2n1`, the half-inhibitory concentration (IC50) amounted to 37 nM in data set [1], 47 nM in data set [2], 189 nM in data set [15] and 12 nM in data set [3].
`CCC(C)Sc1ncc2cc3cnccc3c(N)c2n1` (centres undefined): the IC50 in data set [3] is 202 nM.
As for `CCCSc1ncc2cc3cnccc3c(N)c2n1`, the IC50 in data set [1] was 90 nM; in [2], 148 nM; in data set [3] it was 65 nM.
On to `CCSc1ncc2cc3cnccc3c([N+](=O)[O-])c2n1`, for which the IC50 was 148 nM in [1], 515 nM in data set [2] and 91 nM in data set [3].
Compound `CCCSc1ncc2cc3cnccc3c([N+](=O)[O-])c2n1` had a concentration for half-maximal inhibition (IC50) in data set [3] of 169 nM.
Still for that read-out and setting: the same measure for `CCCCSc1ncc2cc3cnccc3c([N+](=O)[O-])c2n1`: 1040 nM; for `CCSc1ncc2cc3cnccc3c(N)c2n1`: 124 nM.
On the same count and under the same terms, the same measure for `CC(C)Sc1ncc2cc3cnccc3c([N+](=O)[O-])c2n1`: 114 nM; for `COc1ncc2cc3cnccc3c(N)c2n1`: 159 nM.
